Laboratory results as given in patent US20240358611A1, “COMPOSITIONS” (SYMRISE AG, priority 2021, published 2024).

Key:
[1] = system: LPS-stimulated, pro-inflammatory synthesis of IL-1B in RAW macrophages; experiment: LPS-stimulated IL-1B synthesis in RAW 264.7 macrophages (ELISA); assay type: cell-based, mouse; details: LPS 10 ng/ml, 24 h
Description: (§1) RAW 264.7 (mouse macrophage tumor cells) cells were provided from the University of Cordoba in Spain and maintained in RPMI1640 medium containing FCS.
(§2) Cells are seeded in 24-well-plates (approx. 500 000 cells/ml in 1 ml) for ELISA experiments.
(§3) Cells are incubated without or with LPS (10 ng/ml) for 24 h. The pyrozol derivates or additives such as Thymol or Menthol (3 doses, 1, 10, 100 μM) are added 30 min before LPS treatment as single dose or in combination. […] After 24 h, supernatants are removed, centrifuged, and investigated for PGE2 concentrations in EIA (PGE2, from Cayman, isoprostane from Cayman) or ELISA (IL-1B, IL-6, TNF-alpha, Biotechne)). Each dose is investigated 2 times.
(§4) Optimal dose range for additives and substituted azacycles was determined in a preliminary assays dose finding assay (data not shown). Thus, test items are investigated at 10 μM 100 μM or any combination of the two doses for additive effects. Synergism is defined as additive effect surpassing the hypothetical mathematical value of effective doses. The hypothetical value is depicted in all graphs as dashed line.

[2] = system: LPS-stimulated, pro-inflammatory synthesis of PGE2 in RAW macrophages; experiment: LPS-stimulated PGE2 synthesis in RAW 264.7 macrophages (EIA); assay type: cell-based, mouse; details: 10 μM in combination with 10 μM Thymol, LPS 10 ng/ml, 24 h
Description: as §1, §2, §3, §4

[3] = in combination with Menthol, 10 μM or 100 μM each, all tested combinations
[4] = in combination with Thymol, 10 μM or 100 μM each

For `CSC(C)C(=O)N1CCCC[C@@H]1c1ncc(-c2ccc(C)cc2)[nH]1` (stereo partly drawn) [CoNo11, 2-methylsulfanyl-1-[(1R)-2-[5-(p-tolyl)-1H-imidazol-2-yl]-1-piperidyl]-propan-1-one], the “effect on LPS-stimulated IL-1 beta synthesis” value [1, 3] was “strong inhibition of IL-1 beta synthesis” and the “effect on LPS-stimulated IL-1 beta synthesis” value [1, 4] was “strong synergistic soothing effect”.

`CCC(C)C(=O)N1CCCCC1c1ncc(-c2ccc(C)cc2)[nH]1` (stereo not drawn) [CoNo164, 2-methyl-1-[2-[5-(p-tolyl)-1H-imidazol-2-yl]-1-piperidyl]butan-1-one] was tested, and the “effect on LPS-stimulated IL-1 beta synthesis” value [1, 3] was “strong inhibition of IL-1 beta synthesis”, the “effect on LPS-stimulated IL-1 beta synthesis” value [1, 4] was “strong synergistic soothing effect” and the “effect on LPS-stimulated PGE2 synthesis” value [2] was “synergistically mitigated PGE2 synthesis”.

In the case of `CC[C@H](C)C(=O)N1CCCCC1c1ncc(-c2ccc(C)cc2)[nH]1` (stereo partly drawn) [CoNo166, (2S)-2-methyl-1-[2-[5-(p-tolyl)-1H-imidazol-2-yl]-1-piperidyl]butan-1-one], the “effect on LPS-stimulated IL-1 beta synthesis” value [1, 3] is reported as “strong inhibition of IL-1 beta synthesis”, the “effect on LPS-stimulated IL-1 beta synthesis” value [1, 4] is reported as “strong synergistic soothing effect” and the “effect on LPS-stimulated PGE2 synthesis” value [2] is reported as “synergistically mitigated PGE2 synthesis”.

For `CC1CCC(C(C)C)C(O)C1` (stereo not drawn) [Menthol], the “effect on LPS-stimulated IL-1 beta synthesis” value ([1]; applied as single substance) was “stimulates IL-1 beta synthesis”.
